Measured values reported in patent US7524956B2, “Hemisynthetic method and new compounds” (Pharma Mar, S.A., priority 1999, dated 2009).

What was measured:
Type in all cases: cell-based
[1] = test system: A-549 (monolayer culture of a human lung carcinoma); assay: Cytotoxic activity screening, A-549 cells; conditions: A549, 72 h, three days of incubation, Crystal Violet, approximate IC50
Description: (§1) Cell Cultures. Cells were maintained in logarithmic phase of growth in Eagle's Minimum Essential Medium, with Earle's Balanced Salts, with 2.0 mM L-glutamine, with non-essential amino acids, without sodium bicarbonate (EMEM/neaa); supplemented with 10% Fetal Calf Serum (FCS), 10^−2 M sodium bicarbonate and 0.1 g/l penicillin-G+streptomycin sulfate.
(§2) A simple screening procedure has been carried out to determine and compare the antitumour activity of these compounds, using an adapted form of the method described by Bergeron et al (1984). The tumour cell line employed have been P-388 (suspension culture of a lymphoid neoplasm from DBA/2 mouse), A-549 (monolayer culture of a human lung carcinoma), HT-29 (monolayer culture of a human colon carcinoma) and MEL-28 (monolayer culture of a human melanoma).
(§3) A-549, HT-29 and MEL-28 were seeded into 16 mm wells at 2×10^4 cells per well in 1 ml aliquots of MEM 10FCS containing the indicated concentration of drug. A separate set of cultures without drug was seeded as control growth to ensure that cells remained in exponential phase of growth. All determinations were carried out in duplicate. After three days of incubation at 37° C., 10% CO2 in a 98% humid atmosphere, the wells were stained with 0.1% Crystal Violet. An approximately IC50 was determined by comparing the growth in wells with drug to the growth in wells control.

[2] = test system: P-388 (suspension culture of a lymphoid neoplasm from DBA/2 mouse); assay: Cytotoxic activity screening, P-388 cells; conditions: P388, 72 h, three days of incubation, approximate IC50
Description: as §1, §2
P-388 cell were seeded into 16 mm wells at 1×10^4 cells per well in 1 ml aliquots of MEM 5FCS containing the indicated concentration of drug. A separate set of cultures without drug was seeded as control growth to ensure that cells remained in exponential phase of growth. All determinations were carried out in duplicate.

[3] = test system: MEL-28 (monolayer culture of a human melanoma); assay: Cytotoxic activity screening, MEL-28 cells; conditions: SK-MEL-28, 72 h, three days of incubation, Crystal Violet, approximate IC50
Description: as §1, §2, §3

[4] = test system: HT-29 (monolayer culture of a human colon carcinoma); assay: Cytotoxic activity screening, HT-29 cells; conditions: HT-29, 72 h, three days of incubation, Crystal Violet, approximate IC50
Description: as §1, §2, §3

[5] = test system: DU-145; assay: Cytotoxic activity screening, DU-145 cells; conditions: Homo sapiens, DU-145, DU-145 cells

Compound: CCCCCCCCCC(=O)NC[C@H]1c2c(c(OC(C)=O)c(C)c3c2OCO3)CC2[C@H]3c4c(cc(C)c(OC)c4O)C[C@@H]([C@H](C#N)N21)N3C (stereo partly drawn)
- IC50 [1]: 0.007 µM
- IC50 [2]: 0.007 µM
- IC50 [3]: 0.007 µM
- IC50 [4]: 0.007 µM
- IC50 [5]: 0.007 µM

Compound: CCCC(=O)N[C@@H](C)C(=O)NC[C@H]1c2c(c(OC(C)=O)c(C)c3c2OCO3)CC2[C@H]3c4c(cc(C)c(OC)c4O)C[C@@H]([C@H](C#N)N21)N3C (stereo partly drawn)
- IC50 [1]: 0.001 µM
- IC50 [2]: 0.001 µM
- IC50 [3]: 0.0005 µM
- IC50 [4]: 0.0005 µM
- IC50 [5]: 0.001 µM

Compound: COc1c(C)cc2c(c1O)[C@@H]1C3Cc4c(OC(C)=O)c(C)c5c(c4[C@H](CNC(=O)/C=C/c4ccccc4)N3[C@@H](C#N)[C@H](C2)N1C)OCO5 (stereo partly drawn)
- IC50 [1]: 0.0001 µM
- IC50 [2]: 0.0001 µM
- IC50 [3]: 0.0001 µM
- IC50 [4]: 0.0001 µM
- IC50 [5]: 0.0001 µM
